A word on the melting point: it is the temperature of the solid-liquid transition.

As for `CCCCCCCCc1c(CC)nc2nc(Cl)nn2c1N`, the melting point is 202 to 203 °C.

For the origin of these results see patent publication US20080139581A1 (priority 2005, published 2008).
